Assay results published in patent US6773721B1, “Osmotic caplet” (ALZA Corporation, priority 1992, dated 2004).

Test: Osmotic pressure of saturated solutions by vapor pressure osmometer
Type: physicochemical
Details: saturated solution in water at 37° C.; Model 320B Vapor Pressure Osmometer
Procedure: The osmagent is initially present in excess and it can be any physical form such as particle, crystal, pellet, tablet, strip, film or granule. […] In the table, the osmotic pressure π, is in atmospheres, ATM. The osmotic pressure is measured in a commercially available osmometer that measures the vapor pressure difference between pure water and the solution to be analyzed, and according to standard thermodynamic principles, the vapor pressure ratio is converted into osmotic pressure difference. […] The osmometer used for the present measurements is identified as Model 320B, Vapor Pressure Osmometer, manufactured by Hewlett Packard Co., Avondale, Pa.

## O=C(CO)[C@@H](O)[C@H](O)[C@H](O)CO [Fructose]
  OSMOTIC PRESSURE: 355 ATM

## OC[C@@H](O)[C@@H](O)[C@H](O)[C@H](O)CO [Mannitol]
  OSMOTIC PRESSURE: 38 ATM

## [Cl-].[K+] [Potassium Chloride]
  OSMOTIC PRESSURE: 245 ATM

## O=S(=O)([O-])[O-].[K+].[K+] [Potassium Sulfate]
  OSMOTIC PRESSURE: 39 ATM

## [Cl-].[Na+] [Sodium Chloride]
  OSMOTIC PRESSURE: 356 ATM

## O=P([O-])([O-])O.[Na+].[Na+] [Sodium Phosphate Dibasic Anhydrous]
  OSMOTIC PRESSURE: 29 ATM

## O.O.O.O.O.O.O.O=P([O-])([O-])O.[Na+].[Na+] [Sodium Phosphate Dibasic.7H2O]
  OSMOTIC PRESSURE: 31 ATM

## O.O.O.O.O.O.O.O.O.O.O.O.O=P([O-])([O-])O.[Na+].[Na+] [Sodium Phosphate Dibasic.12H2O]
  OSMOTIC PRESSURE: 31 ATM

## O.O.O.O.O.O.O.O.O.O.O.O.O=P([O-])([O-])[O-].[Na+].[Na+].[Na+] [Sodium Phosphate Tribasic.12H2O]
  OSMOTIC PRESSURE: 36 ATM

## Sodium Phosphate Monobasic.H2O
  OSMOTIC PRESSURE: 28 ATM
